Columns and labels:
[1] = molecular target: DCAF15/RBM39 (Homo sapiens (Human), UniProt Q14498+Q66K64); test: AlphaLISA compound-induced DCAF15-RBM39 ternary complex formation; assay type: binding; conditions: His-tagged DCAF15 complex and biotin-carrying RBM39
Method: Example 7: Quantitative Evaluation of Compound-Induced Ternary Complex Formation Using Amplified Luminescent Proximity Homogeneous Assay
Compound-induced DCAF15-RBM39 ternary complex formation was monitored using AlphaLISA® assays (Perkin Elmer, Waltham, MA). Test compounds were first collected in a 384-well microplate (cat. #781280, Grenier Bio-One, Monroe, NC) as 2 mM stocks in 100% dimethyl sulfoxide (DMSO). These stocks were then serially diluted in DMSO by 3-fold into a new plate (cat. #781280, Grenier Bio-One, Monroe, NC) using a Mosquito HTS dispenser (Mosquito® HTS, SPT Labtech, Boston, MA). 0.2 μL of these diluted stocks were then dispensed into a 384-well Optiplate (cat. #6007290, Perkin Elmer, Waltham, MA) in duplicate wells, to assemble the final assay plate consisting of duplicated dose ranges. Separately, a protein mixture consisting of His-tagged DCAF15 complex and biotin-carrying RBM39, each at 408 nM (2.04×), was prepared in 50 mM HEPES, pH 7.5, 100 mM NaCl, 2 mM MgCl2, 0.1% BSA, 2 mM TCEP, 0.05% Tween-20 (dilution buffer). 9.8 μL of this protein mixture was then mixed with the compounds in the assay plate and incubated for one hour at room temperature. Reaction mixtures with no compounds added were included as negative controls, while a His-tagged and biotinylated GST protein was included to track general assay performance. Nickel Chelate AlphaLISA Acceptor beads (cat. #AL108M, Perkin Elmer, MA) and AlphaScreen Streptavidin Donor beads (cat. #6760002, Perkin Elmer, Waltham, MA) were prepared separately in the dilution buffer as 4× stocks (80 ug/ml). The beads were then added to the assay plate sequentially with incubation at room temperature for 1-2 hours after each addition. Signals were recorded using EnVision 2104 Multilabel Plate Reader (Perkin Elmer, Waltham, MA) and titration curves were generated in GraphPad Prism (7.00, GraphPad, La Jolla, CA).

[2] = molecular target: DCAF15 (Homo sapiens (Human), UniProt Q66K64); test: HTRF competition assay, binary interaction with DCAF15; assay type: binding; conditions: competition with Alexa Fluor 647 tracer
DCAF15, sequence (Q66K64 whole entry): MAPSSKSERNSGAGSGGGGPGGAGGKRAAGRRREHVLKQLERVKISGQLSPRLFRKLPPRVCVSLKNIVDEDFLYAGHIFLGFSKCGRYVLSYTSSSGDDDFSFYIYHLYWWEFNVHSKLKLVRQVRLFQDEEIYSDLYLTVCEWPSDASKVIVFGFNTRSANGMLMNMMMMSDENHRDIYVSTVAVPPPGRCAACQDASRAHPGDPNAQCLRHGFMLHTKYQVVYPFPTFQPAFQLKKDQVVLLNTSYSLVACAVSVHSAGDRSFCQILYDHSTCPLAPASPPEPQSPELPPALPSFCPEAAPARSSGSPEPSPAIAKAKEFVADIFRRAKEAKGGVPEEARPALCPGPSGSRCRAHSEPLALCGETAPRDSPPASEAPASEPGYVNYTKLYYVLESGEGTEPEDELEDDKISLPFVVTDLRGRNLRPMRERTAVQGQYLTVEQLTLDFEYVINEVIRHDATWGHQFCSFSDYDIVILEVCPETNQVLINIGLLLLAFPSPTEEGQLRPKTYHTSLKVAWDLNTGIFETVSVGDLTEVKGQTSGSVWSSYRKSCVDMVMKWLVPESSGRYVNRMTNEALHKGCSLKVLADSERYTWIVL
DCAF15, sequence (Q16531 whole entry partner): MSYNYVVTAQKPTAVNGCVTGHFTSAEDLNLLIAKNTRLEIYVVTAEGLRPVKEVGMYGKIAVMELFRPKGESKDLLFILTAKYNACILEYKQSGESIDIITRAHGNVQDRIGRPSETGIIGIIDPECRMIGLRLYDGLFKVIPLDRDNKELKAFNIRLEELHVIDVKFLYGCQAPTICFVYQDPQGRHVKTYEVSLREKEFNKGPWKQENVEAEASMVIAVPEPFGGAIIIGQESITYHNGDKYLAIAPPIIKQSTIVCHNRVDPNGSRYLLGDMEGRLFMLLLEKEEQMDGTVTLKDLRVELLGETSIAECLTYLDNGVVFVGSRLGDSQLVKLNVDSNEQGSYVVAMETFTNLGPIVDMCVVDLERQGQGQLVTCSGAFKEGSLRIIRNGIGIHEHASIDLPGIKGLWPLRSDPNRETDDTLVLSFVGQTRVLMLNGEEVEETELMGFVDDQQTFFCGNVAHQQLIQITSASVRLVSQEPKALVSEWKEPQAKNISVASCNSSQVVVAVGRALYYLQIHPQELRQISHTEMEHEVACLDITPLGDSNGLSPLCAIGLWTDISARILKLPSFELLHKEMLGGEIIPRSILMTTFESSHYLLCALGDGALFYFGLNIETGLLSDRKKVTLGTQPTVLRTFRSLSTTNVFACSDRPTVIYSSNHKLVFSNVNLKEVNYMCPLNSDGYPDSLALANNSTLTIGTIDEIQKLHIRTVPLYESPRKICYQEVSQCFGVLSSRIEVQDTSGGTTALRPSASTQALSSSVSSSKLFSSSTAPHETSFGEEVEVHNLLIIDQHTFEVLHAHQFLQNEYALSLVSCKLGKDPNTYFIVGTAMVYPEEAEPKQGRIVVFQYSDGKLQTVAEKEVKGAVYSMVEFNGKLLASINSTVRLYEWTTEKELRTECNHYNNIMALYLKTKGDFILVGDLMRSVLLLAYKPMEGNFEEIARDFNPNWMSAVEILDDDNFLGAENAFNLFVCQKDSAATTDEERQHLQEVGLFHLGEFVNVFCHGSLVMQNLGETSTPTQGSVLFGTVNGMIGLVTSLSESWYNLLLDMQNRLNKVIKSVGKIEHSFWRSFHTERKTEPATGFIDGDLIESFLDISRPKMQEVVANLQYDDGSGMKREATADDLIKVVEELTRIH
Method: Example 8: Measurement of Binary Interaction Between Compounds and DCAF15 Using Homogeneous Time Resolved Fluorescence (HTRF)
DCAF15 interactions with test compounds were monitored using HTRF competition assays (Cisbio, Bedford, MA). Test compounds were first collected in a 384-well microplate (cat. #781280, Grenier Bio-One, Monroe, NC) as 10 mM stocks in 100% dimethyl sulfoxide (DMSO). A second stock plate (cat. #781280, Grenier Bio-One, Monroe, NC) was prepared through 3-fold serial dilution in DMSO of the afore-mentioned stocks using a Mosquito HTS dispenser (mosquito@ HTS, SPT Labtech, Boston, MA). 0.2 μL of these diluted stocks were then dispensed into a 384-well Optiplate (cat. #6007290, Perkin Elmer, Waltham, MA) in duplicate wells, to assemble the assay plate. The tracer molecule containing an Alexa Fluor 647 probe was prepared in 25 mM HEPES pH 7.5, 100 mM NaCl, 0.1 mg/ml BSA, 0.005% Tween 20, 0.5 mM TCEP (dilution buffer) to 612 nM (2.04×). Separately, His-tagged DCAF15 complex was prepared at 32 nM (4×) in the dilution buffer, and mAb Anti-6His-Eu cryptate Gold (cat. #61H12KLA, Cisbio, Bedford, MA) at 4× dilution in the detection buffer (cat. #61DB9RDF, Cisbio, Bedford, MA). These two solutions were mixed and incubated for 15 min at room temperature. 9.8 μL of the tracer solution and 10 μL of the DCAF15/mAb Anti-6His-Eu cryptate Gold mixture were added sequentially to each well in the assay plate. Reaction mixtures with no DCAF15 added were included as positive controls. The final mixture was incubated for an hour at room temperature and spun down briefly before data collection at 615 nm and 666 nm using EnVision 2104 Multilabel Plate Reader (Perkin Elmer, Bedford, MA). Binding was estimated based on ratiometric analysis and titration curves were generated in GraphPad Prism (7.00, GraphPad, La Jolla, CA).

DCAF15/RBM39, sequence (Q66K64 whole entry, species assumed): as the sequence (Q66K64 whole entry) above
DCAF15/RBM39, sequence (Q14498 whole entry, species assumed): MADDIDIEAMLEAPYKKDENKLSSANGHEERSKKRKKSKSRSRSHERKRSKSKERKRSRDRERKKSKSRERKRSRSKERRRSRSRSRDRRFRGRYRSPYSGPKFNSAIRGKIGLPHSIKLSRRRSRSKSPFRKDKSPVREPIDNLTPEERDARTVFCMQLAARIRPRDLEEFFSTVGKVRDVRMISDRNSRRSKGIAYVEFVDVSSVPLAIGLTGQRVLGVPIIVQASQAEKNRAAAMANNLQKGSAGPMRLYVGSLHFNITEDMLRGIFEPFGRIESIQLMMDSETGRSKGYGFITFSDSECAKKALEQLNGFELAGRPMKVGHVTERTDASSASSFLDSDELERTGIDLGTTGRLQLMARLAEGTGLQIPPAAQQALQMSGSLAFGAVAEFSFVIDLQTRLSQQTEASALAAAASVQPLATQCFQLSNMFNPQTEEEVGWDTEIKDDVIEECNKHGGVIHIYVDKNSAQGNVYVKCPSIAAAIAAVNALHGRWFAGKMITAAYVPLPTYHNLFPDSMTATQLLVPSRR
DCAF15/RBM39, sequence (Q16531 whole entry partner, species assumed): as the sequence (Q16531 whole entry partner) above

Compound	EC50 [1] [nM]	IC50 [2] [nM]
Cn1cc(S(=O)(=O)Nc2ccc(Cl)c3c(Cl)c[nH]c23)c2ccccc21 [Compound 2]	1000 to 10000	–
O=S(=O)(Nc1ccc(Cl)c2c(Cl)c[nH]c12)c1cc2cc(F)ccc2s1 [Compound 5]	1000 to 10000	–
CC1(C)Cc2cc(S(=O)(=O)Nc3ccc(Cl)c4c(Cl)c[nH]c34)ccc2O1 [Compound 9]	1000 to 10000	> 100000
CC(=O)N1CCc2cc(S(=O)(=O)Nc3ccc(Cl)c4c(Cl)c[nH]c34)ccc21 [Compound 12]	1000 to 10000	1000 to 10000
O=C1Nc2ccc(S(=O)(=O)Nc3ccc(Cl)c4c(Cl)c[nH]c34)cc2C1=O [Compound 14]	1000 to 10000	1000 to 10000
CC(=O)N1Cc2ccc(S(=O)(=O)Nc3ccc(Cl)c4c(Cl)c[nH]c34)cc2C1 [Compound 15]	1000 to 10000	1000 to 10000
CN1C(=O)c2ccc(S(=O)(=O)Nc3ccc(Cl)c4c(Cl)c[nH]c34)cc2C1=O [Compound 16]	1000 to 10000	1000 to 10000
Cn1c(=O)n(C)c2cc(S(=O)(=O)Nc3ccc(Cl)c4c(Cl)c[nH]c34)ccc21 [Compound 19]	1000 to 10000	10000 to 100000
O=c1[nH]c2ccc(S(=O)(=O)Nc3ccc(Cl)c4c(Cl)c[nH]c34)cc2o1 [Compound 21]	1000 to 10000	–
O=C1NS(=O)(=O)c2ccc(S(=O)(=O)Nc3ccc(Cl)c4c(Cl)c[nH]c34)cc21 [Compound 23]	1000 to 10000	1000 to 10000
O=S(=O)(Nc1ccc(Cl)c2c(Cl)c[nH]c12)c1ccc2c(c1)CCCC2 [Compound 24]	1000 to 10000	> 100000
O=S(=O)(Nc1ccc(Cl)c2c(Cl)c[nH]c12)c1ccc2c(Cl)ccc(Cl)c2c1 [Compound 28]	10000 to 100000	–
O=S(=O)(Nc1ccc(Cl)c2c(Cl)c[nH]c12)c1ccc2c(c1)CC[C@@H](C(F)F)O2 [Compound 29]	1000 to 10000	10000 to 100000
O=C1CCOc2ccc(S(=O)(=O)Nc3ccc(Cl)c4c(Cl)c[nH]c34)cc21 [Compound 30]	1000 to 10000	–
O=C1NCCc2ccc(S(=O)(=O)Nc3ccc(Cl)c4c(Cl)c[nH]c34)cc21 [Compound 34]	1000 to 10000	1000 to 10000
O=C1CCc2cc(S(=O)(=O)Nc3ccc(Cl)c4c(Cl)c[nH]c34)c(F)cc2N1 [Compound 35]	1000 to 10000	1000 to 10000
O=S(=O)(Nc1ccc(Cl)c2c(Cl)c[nH]c12)c1cc(Br)c2c(c1)OCCO2 [Compound 38]	1000 to 10000	1000 to 10000
O=C1COc2ccc(S(=O)(=O)Nc3ccc(Cl)c4c(Cl)c[nH]c34)cc2N1 [Compound 39]	1000 to 10000	–
CN1Cc2cc(S(=O)(=O)Nc3ccc(Cl)c4c(Cl)c[nH]c34)ccc2OC1=O [Compound 41]	≤ 1000	1000 to 10000
Cn1c(=O)c2cc(S(=O)(=O)Nc3ccc(Cl)c4c(Cl)c[nH]c34)ccc2n(C)c1=O [Compound 43, N-(3,4-dichloro-1H-indol-7-yl)-1,3-dimethyl-2,4-dioxo-1,2,3,4-tetrahydroquinazoline-6-sulfonamide]	≤ 1000	–
O=C1COc2cc(S(=O)(=O)Nc3ccc(Cl)c4c(Cl)c[nH]c34)cnc2N1 [Compound 45]	≤ 1000	10000 to 100000
CC(C)(C)OC(=O)N1CCCc2cc(S(=O)(=O)Nc3ccc(Cl)c4c(Cl)c[nH]c34)ccc2C1 [Compound 46]	1000 to 10000	–
CC(C)(C)OC(=O)N1CCCc2cc(S(=O)(=O)Nc3ccc(Cl)c4c(Cl)c[nH]c34)ccc2C1 [Compound 47]	≤ 1000	1000 to 10000
O=C1NCCOc2ccc(S(=O)(=O)Nc3ccc(Cl)c4c(Cl)c[nH]c34)cc21 [Compound 48]	≤ 1000	1000 to 10000
O=C1CCSc2ccc(S(=O)(=O)Nc3ccc(Cl)c4c(Cl)c[nH]c34)cc2N1 [Compound 49]	≤ 1000	1000 to 10000

Other lines, results leading:

EC50 [1] [nM]	IC50 [2] [nM]	Compound
≤ 1000	1000 to 10000	O=C1CCc2ccc(S(=O)(=O)Nc3ccc(Cl)c4c(Cl)c[nH]c34)cc21 [Compound 7]
≤ 1000	1000 to 10000	CC(=O)N[C@H]1Cc2ccc(S(=O)(=O)Nc3ccc(Cl)c4c(Cl)c[nH]c34)cc2C1 [Compound 8]
≤ 1000	1000 to 10000	O=C1OCc2ccc(S(=O)(=O)Nc3ccc(Cl)c4c(Cl)c[nH]c34)cc21 [Compound 10]
≤ 1000	1000 to 10000	O=S(=O)(Nc1ccc(Cl)c2c(Cl)c[nH]c12)c1ccc2occc2c1 [Compound 11]
≤ 1000	1000 to 10000	O=S(=O)(Nc1ccc(Cl)c2c(Cl)c[nH]c12)c1ccc2c(c1)OC(F)(F)O2 [Compound 18]
≤ 1000	1000 to 10000	Cn1c(=O)oc2cc(S(=O)(=O)Nc3ccc(Cl)c4c(Cl)c[nH]c34)ccc21 [Compound 22]
≤ 1000	1000 to 10000	O=S(=O)(Nc1ccc(Cl)c2c(Cl)c[nH]c12)c1ccc2ccccc2c1F [Compound 25]
≤ 1000	1000 to 10000	O=C1OCCc2ccc(S(=O)(=O)Nc3ccc(Cl)c4c(Cl)c[nH]c34)cc21 [Compound 31]
≤ 1000	–	O=C(N1CCc2ccc(S(=O)(=O)Nc3ccc(Cl)c4c(Cl)c[nH]c34)cc2C1)C(F)(F)F [Compound 33]
≤ 1000	1000 to 10000	CC1(C)CC(=O)Nc2ccc(S(=O)(=O)Nc3ccc(Cl)c4c(Cl)c[nH]c34)cc21 [Compound 36]
≤ 1000	1000 to 10000	O=c1ccc2cc(S(=O)(=O)Nc3ccc(Cl)c4c(Cl)c[nH]c34)ccc2[nH]1 [Compound 37]
≤ 1000	–	O=C1COc2cc(S(=O)(=O)Nc3ccc(Cl)c4c(Cl)c[nH]c34)ccc2N1 [Compound 40]
